# Measured values: patent US6572879B1, “Formulations for transdermal delivery of pergolide” (Alza Corporation, priority 1995, dated 2003)
# Structures can show the parent of a compound that is named as a salt.
# How the values were obtained:
# [1] = In vitro flux of pergolide through human cadaver epidermis in diffusion cells at 35° C.; assay type: in vitro ADME; details: 2% by weight in water donor, no permeation enhancer, over a period of 50 hours
# Description: Several test samples were made to measure the flux of pergolide base and mesylate through human cadaver epidermis from donor vehicles containing the pergolide base or mesylate mixed with water alone, water and ethanol, or mineral oil alone as shown in Table 1. Transdermal fluxes were obtained using human epidermis at 35° C. in standard diffusion cells. FIGS. 5 and 6 graphically depict the results.
# Circular pieces of human epidermis were placed with stratum corneum facing up. The release liner of the laminate was removed and the system was centered over the stratum corneum side of the epidermis. The edges of epidermis were then folded around the system. This assembly was then mounted on a Teflon rod. A known volume of receptor solution was then placed in a test tube and was equilibrated at 35° C. The Teflon rod with system and epidermis attached was then placed in a water bath at 35° C. Mixing was accomplished by attachment to a motor which caused constant vertical mixing.
# At given time intervals, the entire receptor solution was removed from the test tubes and replaced with an equal volume of fresh receptor solutions previously equilibrated at 35° C. The receptor solutions are stored in capped vials at room temperature until assayed for pergolide content by HPLC. From the drug concentration and the volume of the receptor solutions, the area of permeation and the time interval, the flux of the drug through the epidermis was calculated as follows: (drug concentration X volume of receptor)/(area x time)=flux (μg/cm^2·hr).
# [2] = Plasma terminal half-life of pergolide administered transdermally; assay type: in vivo; details: human, topical or ocular
SMILES,average baseline skin flux [1],average baseline skin flux ([1]; listed as pergolide6mesylate),half-life [2],average baseline skin flux ([1]; listed as pergolide. base)
"CCCN1C[C@H](CSC)C[C@@H]2c3cccc4[nH]cc(c34)C[C@H]21 [pergolide mesylate, 8-[(methylthiolmethyl]6-propylergoline monomethanesulfonate)]",approximately 1.1 μg/cm^2·hr,about 1.1 μg/cm^2·hr,–,–
"CCCN1CC(CSC)C[C@@H]2c3cccc4[nH]cc(c34)C[C@H]21 (some centres unmarked) [pergolide, 8-[(methylthio)methyl]-6-propylergoline]",–,–,5 to 10 h,–
"CCCN1CC(CSC)C[C@@H]2c3cccc4[nH]cc(c34)C[C@H]21 (some centres unmarked) [pergolide base, 8-[(methylthio)methyl]-6-propylergoline]",approximately 0.3 μg/cm^2·hr,–,–,about 0.3 μg/cm^2·hr
